Molecular target: T1, α-L-iduronidase (IdA; EC 3.2.1.76) (Homo sapiens, UniProt P35475)
T1 construct: Incubation with IdA present in DBS leads to enzymatic release of the iduronyl group; from tissue; host or cells: dried blood spot (DBS) extract, 3-mm punch
T1 sequence (P35475 28-653): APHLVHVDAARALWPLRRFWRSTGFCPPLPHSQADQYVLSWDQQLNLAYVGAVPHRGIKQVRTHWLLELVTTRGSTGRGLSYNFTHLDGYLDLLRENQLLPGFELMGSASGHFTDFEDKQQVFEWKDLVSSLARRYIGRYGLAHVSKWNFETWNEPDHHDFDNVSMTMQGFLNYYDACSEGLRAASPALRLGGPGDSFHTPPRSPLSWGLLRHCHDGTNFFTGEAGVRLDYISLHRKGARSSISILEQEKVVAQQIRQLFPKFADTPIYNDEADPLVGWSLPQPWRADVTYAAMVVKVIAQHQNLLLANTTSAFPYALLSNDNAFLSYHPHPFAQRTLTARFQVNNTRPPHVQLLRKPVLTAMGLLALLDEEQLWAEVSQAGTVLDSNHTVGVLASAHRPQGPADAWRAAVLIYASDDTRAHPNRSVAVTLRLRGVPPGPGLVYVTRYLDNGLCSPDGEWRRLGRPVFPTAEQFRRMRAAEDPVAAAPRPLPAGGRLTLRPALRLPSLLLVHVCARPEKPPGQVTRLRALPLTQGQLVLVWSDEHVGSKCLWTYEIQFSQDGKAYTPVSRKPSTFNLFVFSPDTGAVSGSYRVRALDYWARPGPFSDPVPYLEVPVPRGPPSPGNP
Test: ESI-MSMS assay of α-L-iduronidase enzymatic activity in dried blood spots (IdA-P formed as a function of IdA-S concentration)
Format: biochemical
Conditions: IdA in DBS extract; 37° C., 20 h; IdA-S 0 to 0.67 mmol/L; fit to Michaelis-Menten equation (FIG. 7)
Method: A representative method of the invention for assaying α-L-iduronidase enzymatic activity by tandem mass spectrometry is described in Example 3. […] The amount of IdA-P increases linearly with incubation time from 0 to 30 h (FIG. 6); 20 h was chosen as the standard incubation time for the assay described in Example 3. The amount of IdA-P formed at 20 h increased in a hyperbolic fashion as the concentration of IdA-S increased from 0 to 0.67 mmol/L, and Km was determined to be 0.2 mmol/L (FIG. 7). An IdA-S concentration of 0.5 mmol/L was chosen in order to be under saturation conditions. The amount of IdA-P increases with the surface area of added DBS (FIG. 8), with a plateau reached at higher blood amounts (presumably due to the presence of endogenous inhibitors in the DBS). In one embodiment, the method uses a 3-mm-DBS punch.
A single 3-mm diameter DBS (containing ˜3.6 μL of blood) was obtained with a leather punch and was placed in a 1-mL Eppendorf tube. Extraction buffer [160 μL of 0.1 mol/L sodium formate pH 3.4 containing 75 μmol/L D-saccharic acid 1,4-lactone (Sigma); storage at −20° C.] was added to the tube. […]
Extraction of IdA-P and IdA-IS from the enzymatic reaction and blank was performed by addition of 250 μL of ethyl acetate. […] The sample was analyzed within the first 45 seconds of infusion, and after 1 min, the MSMS signal has returned to the background level. […]

Work on `CC(C)(C)OC(=O)NCCCCNC(=O)Cc1cc(=O)oc2cc(O[C@@H]3O[C@@H](C(=O)O)[C@@H](O)[C@H](O)[C@H]3O)ccc12` [IdA-S, (N-[4″-(tert-butoxycarbonylamino)-butyl]) 7-O-(α-L-idopyranosyluronic acid)coumarin-4-acetamide] yielded a Km of 200 µM.

— patent publication US9790536B2, “Methods for assaying alpha-L-iduronidase enzymatic activity” (University of Washington, priority 2007, dated 2017)
